ChEMBL document CHEMBL3580659, “One-pot multicomponent synthesis of indole incorporated thiazolylcoumarins and their antibacterial, anticancer and DNA cleavage studies” (2015)
Active and inactive are the calls of the source. No cut-off for these calls is given here.

Experiments:
Escherichia coli [1] = test: Antibacterial activity against Escherichia coli assessed as bacterial growth inhibition at 50 ug/ml after 24 hrs by cup-plate agar diffusion method; format: functional; settings: read-out: IZ
Bacillus subtilis = test: Antibacterial activity against Bacillus subtilis assessed as bacterial growth inhibition at 50 ug/ml after 24 hrs by cup-plate agar diffusion method; format: functional; settings: read-out: IZ
Escherichia coli [2] = test: Induction of DNA cleavage of Escherichia coli pUC18 plasmid DNA at 50 ug/ml after 2 hrs by agarose gel elctrophoresis method
Escherichia coli [3] = test: Induction of DNA cleavage of Escherichia coli pUC18 plasmid DNA at 100 ug/ml after 2 hrs by agarose gel elctrophoresis method

SMILES | Activity (Escherichia coli [2]) | Activity (Escherichia coli [3]) | zone of inhibition at 50 µg/mL (Escherichia coli [1]) [mm] | zone of inhibition at 50 µg/mL (Bacillus subtilis) [mm]
Cc1[nH]c2ccccc2c1/C=N/Nc1nc(-c2cc3ccccc3oc2=O)cs1 | Active |  | 10 | 13
CCn1cc(/C=N/Nc2nc(-c3cc4cc(Br)cc(Br)c4oc3=O)cs2)c2ccccc21 | Active |  | 10 | 10
COc1ccc2[nH]cc(/C=N/Nc3nc(-c4cc5c(ccc6ccccc65)oc4=O)cs3)c2c1 | Active |  | 12 | 15
CCn1cc(/C=N/Nc2nc(-c3cc4c(ccc5ccccc54)oc3=O)cs2)c2ccccc21 |  | Active | 12 | 15
Cc1[nH]c2ccccc2c1/C=N/Nc1nc(-c2cc3cc(Br)cc(Br)c3oc2=O)cs1 | Active |  | 12 | 15
CCn1cc(/C=N/Nc2nc(-c3cc4ccccc4oc3=O)cs2)c2ccccc21 |  | Active | 10 | 10
COc1ccc2[nH]cc(/C=N/Nc3nc(-c4cc5cc(Br)cc(Br)c5oc4=O)cs3)c2c1 | Active |  | 10 | 10
CCn1cc(/C=N/Nc2nc(-c3cc4cc(Br)ccc4oc3=O)cs2)c2ccccc21 | Active |  | 15 | 15

Now from value to compound, other results behind:

Activity (Escherichia coli [2]) | Activity (Escherichia coli [3]) | SMILES | zone of inhibition at 50 µg/mL (Escherichia coli [1]) [mm] | zone of inhibition at 50 µg/mL (Bacillus subtilis) [mm]
Active |  | O=c1oc2ccc3ccccc3c2cc1-c1csc(N/N=C/c2c[nH]c3ccccc23)n1 | 14 | 15
Active |  | Cc1[nH]c2ccccc2c1/C=N/Nc1nc(-c2cc3cc(Cl)ccc3oc2=O)cs1 | 6 | 10
Active |  | O=c1oc2ccc(Cl)cc2cc1-c1csc(N/N=C/c2c[nH]c3ccccc23)n1 | 15 | 13
Active |  | Cc1[nH]c2ccccc2c1/C=N/Nc1nc(-c2cc3cc(Br)ccc3oc2=O)cs1 | 12 | 10
Active |  | COc1ccc2[nH]cc(/C=N/Nc3nc(-c4cc5ccccc5oc4=O)cs3)c2c1 | 10 | 13
Active |  | O=c1oc2ccc(Br)cc2cc1-c1csc(N/N=C/c2c[nH]c3ccccc23)n1 | 13 | 15
Active |  | O=c1oc2ccccc2cc1-c1csc(N/N=C/c2c[nH]c3ccc(Br)cc23)n1 | 10 | 15
Active |  | O=c1oc2c(Br)cc(Br)cc2cc1-c1csc(N/N=C/c2c[nH]c3ccccc23)n1 | 7 | 10
